In patent publication US20150126369A1, “SYNERGISTIC HERBICIDAL COMPOSITION” (ROTAM AGROCHEM INTERNATIONAL COMPANY LIMITED, priority 2013, published 2015):

Key:
Format in all cases: in vivo
Chenopodium = assay: Field test, postemergence herbicidal activity on Chenopodium in sulfonylurea-resistant rape
Text: (§1) A synergistic effect exists when the effect of the composition exceeds the sum of the effects of the compounds applied separately. The expected effect for a specific combination of two active compounds can be calculated using a so-called “Colby formula” (see S. R. Colby, “Calculating Synergistic and Antagonistic Responses of Herbicide Combinations”, Weeds 1967,15, 20-22) as follows: if
(§2) If the actually observed activity (O) is greater than the expected activity (E), then the composition is superadditive, i.e., synergism is present.
(§3) Sulfonylurea herbicides-resistant non-genetically modified rape crops were planted with typical weeds under natural outdoors conditions. When the rape plants grew, the weed populations naturally occurred. The weeds were treated during postemergence at 2-4 leaf stage. To reflect the synergistic effect, they were treated with a lower dosage than the common dosage.

Beckmannia = assay: Field test, postemergence herbicidal activity on Beckmannia in sulfonylurea-resistant rape
Text: as §1, §2, §3

Galium = assay: Field test, postemergence herbicidal activity on Galium in sulfonylurea-resistant rape; conditions: four weeks after the treatment; for pest or weed control at 0.1 g/ha: Galium, post-emergence, 672 h, read-out: Injury of Galium % Experimental value
Text: (§4) A synergistic effect exists when the effect of the composition exceeds the sum of the effects of the compounds applied separately.
as §2
(§5) Sulfonylurea herbicides-resistant non-genetically modified rape crops were planted with typical weeds under natural outdoors conditions. When the rape plants grew, the weed populations naturally occurred. The weeds were treated during postemergence at 2-4 leaf stage.

Alopecurus = assay: Field test, postemergence herbicidal activity on Alopecurus in sulfonylurea-resistant rape; conditions: four weeks after the treatment; for pest or weed control at 10 g/ha: Alopecurus, post-emergence, 672 h, read-out: Injury of Alopecurus % Experimental value
Text: as §4, §2, §5

Datura = assay: Field test, postemergence herbicidal activity against Datura in sulfonylurea-resistant rape; conditions: four weeks after the treatment; for pest or weed control at 5 g/ha: Datura, post-emergence, 672 h, read-out: Injury of Datura % Experimental value
Text: as §4, §2, §5

Setaria = assay: Field test, postemergence herbicidal activity on Setaria in sulfonylurea-resistant rape; conditions: four weeks after the treatment; for pest or weed control at 1 g/ha: Setaria, post-emergence, 672 h, read-out: Injury of Setaria % Experimental value
Text: as §4, §2, §5

Stellaria = assay: Field test, postemergence herbicidal activity on Stellaria in sulfonylurea-resistant rape; conditions: 10 gram ai/ha, four weeks after the treatment; for pest or weed control at 10 g/ha: Stellaria, post-emergence, 672 h, read-out: Injury of Stellaria % Experimental value
Text: as §4, §2, §5

[1] = Chenopodium, post-emergence, 672 h, sulfonylurea alone, 10 gram ai/ha, four weeks after the treatment, read-out: Injury of Chenopodium % Experimental value
[2] = sulfonylurea alone, 0.1 gram ai/ha
[3] = post-emergence, 672 h, sulfonylurea alone, 10 gram ai/ha, four weeks after the treatment, read-out: Injury of Beckmannia % Experimental value
[4] = sulfonylurea alone, 10 gram ai/ha
[5] = sulfonylurea alone, 5 gram ai/ha
[6] = sulfonylurea alone, 1 gram ai/ha
[7] = sulfonylurea alone, 10 gram ai/ha, four weeks after the treatment

| Compound | pest or weed control at 10 g/ha (Chenopodium; [1]) [%] | pest or weed control at 0.1 g/ha (Galium; [2]) [%] | pest or weed control at 10 g/ha (Beckmannia; [3]) [%] | pest or weed control at 10 g/ha (Alopecurus; [4]) [%] | pest or weed control at 5 g/ha (Datura; [5]) [%] | pest or weed control at 1 g/ha (Setaria; [6]) [%] | pest or weed control at 10 g/ha (Stellaria; sulfonylurea alone) [%] | other results |
| --- | --- | --- | --- | --- | --- | --- | --- | --- |
| CCC/C(=N\OCC)C1=C(O)CC(CC(C)SCC)CC1=O (racemic) [sethoxydim, (±)-2-[1-(ethoxyimino)butyl]-5-[2-(ethylthio)propyl]-3-hydroxy-2-cyclo hexen-1-one] | – | – | – | – | – | – | – | pest or weed control at 0.1 g/ha (Chenopodium; Chenopodium, post-emergence, 672 h, read-out: Injury of Chenopodium % Experimental value): 0%; pest or weed control at 0.2 g/ha (Beckmannia; post-emergence, 672 h, read-out: Injury of Beckmannia % Experimental value): 0% |
| COc1cc(OC)nc(NC(=O)NS(=O)(=O)N(C)S(C)(=O)=O)n1 [amidosulfuron, 1-(4,6-dimethoxypyrimidin-2-yl)-3-mesyl(methyl)sulfamoylurea] | 35.8 | 5 | 0 | 0 | 27 | 0 | 35 | – |
| COC(=O)c1ccccc1CS(=O)(=O)NC(=O)Nc1nc(OC)cc(OC)n1 [bensulfuron-methyl, methyl 2-[((4,6-dimethoxypyrimidin-2-yl)aminocarbonylamino]sulfonylmethyl)benzoate] | 12.2 | 16 | 0 | 0 | 32 | 0 | 64 | – |
| COc1nc(C)nc(NC(=O)NS(=O)(=O)c2ccccc2Cl)n1 [chlorsulfuron] | 53.6 | 10 | 36.2 | 54 | 34 | 0 | 55 | – |
| COc1cc(OC)nc(NC(=O)NS(=O)(=O)Nc2ccccc2C(=O)C2CC2)n1 [cyclosulfamuron] | 4.1 | 9 | 0 | 0 | 26 | 0 | 48 | – |
| COC(=O)c1ccccc1S(=O)(=O)NC(=O)Nc1nc(C)nc(OC)n1 [metsulfuron-methyl, methyl 2-[(4-methoxy-6-methyl-1,3,5-triazin-2-yl)ureidosulfonyl]benzoate] | 88.4 | 11 | 24.8 | 82 | 27 | 0 | 58 | – |
| Cc1ccnc(NC(=O)NS(=O)(=O)c2ccccc2[N+](=O)[O-])n1 [monosulfuron] | – | – | – | – | – | – | – | Injury of Chenopodium % Experimental value (Chenopodium; [7]): 23.5%; Injury of Galium % Experimental value (Galium; [2]): 7%; Injury of Beckmannia % Experimental value (Beckmannia; [7]): 7%; Injury of Alopecurus % Experimental value (Alopecurus; [4]): 5%; Injury of Datura % Experimental value (Datura; [5]): 24%; Injury of Setaria % Experimental value (Setaria; [6]): 0%; Injury of Stellaria % Experimental value (Stellaria; sulfonylurea alone): 34% |
| COc1cc(OC)nc(NC(=O)NS(=O)(=O)c2ncccc2C(=O)N(C)C)n1 [nicosulfuron, 2-(4,6-dimethoxypyrimidin-2-ylcarbamoylsulfamoyl)-N,N-dimethylnicotinamide] | 4 | 1 | 50.3 | 5 | 11 | 2 | 60 | – |
| COC(=O)c1sccc1S(=O)(=O)NC(=O)Nc1nc(C)nc(OC)n1 [thifensulfuron-methyl, 3-(4-methoxy-6-methyl-1,3,5-triazin-2-yl)-1-(2-methoxyformylthiophen-3-yl)-sulfonylurea] | 8.1 | 8 | 0 | 0 | 22 | 0 | 57 | – |
| COc1nc(C)nc(NC(=O)NS(=O)(=O)c2ccccc2OCCCl)n1 [triasulfuron, 1-[2-(2-chloroethoxyl)phenylsulfonyl]-3-(4-methoxy-6-methyl-1,3,5-triazin-2-yl)urea] | 22.5 | 13 | 0 | 0 | 28 | 0 | 40 | – |
| (±)-2-[(E)-3-chloroallyloxyimino]propyl-5-[2-(ethylthio) propyl]-3-hydroxycyclohexen-2-one [clethodim] | – | – | – | – | – | – | – | Injury of Galium % Experimental value (Galium; clethodim alone, 10 gram ai/ha): 0%; Injury of Alopecurus % Experimental value (Alopecurus; clethodim alone, 1 gram ai/ha): 5%; Injury of Datura % Experimental value (Datura; clethodim alone, 50 gram ai/ha): 0%; Injury of Setaria % Experimental value (Setaria; clethodim alone, 50 gram ai/ha): 57.4%; Injury of Stellaria % Experimental value (Stellaria; clethodim alone): 0% |
